In ChEMBL document CHEMBL1201862, “PubChem BioAssay data set” (2004):
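Interpolation was linear, between the two tested concentrations surrounding the appropriate level; five concentrations were tested over 48 hours in 96-well plates. Abbreviation: GI50, concentration required for 50% inhibition of growth.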 Active and inactive are the calls of the source. Rule as the data show it: active = GI50 up to about 1.1 µM and inactive = higher.

Tests used:
Experiment in all cases: NCI anticancer screen, dose series, 48 h
A498 = test system: A498
ACHN = test system: ACHN
HL-60 = test system: HL-60
HOP-92 = test system: HOP-92
IGROV-1 = test system: IGROV-1
K562 = test system: K562
Malme-3M = test system: Malme-3M
NCI-H23 = test system: NCI-H23
NCI-H460 = test system: NCI-H460
SF-295 = test system: SF-295
SK-MEL-2 = test system: SK-MEL-2
SK-MEL-5 = test system: SK-MEL-5
SK-OV-3 = test system: SK-OV-3
SN12C = test system: SN12C
SNB-19 = test system: SNB-19
SNB-75 = test system: SNB-75
SW-620 = test system: SW-620
UACC-62 = test system: UACC-62
A549 = test system: A549
HCT-116 = test system: HCT-116

Measured: GI50

COc1cc2c(cc1OC)C(Cl)C(c1ccc(Cl)c(Cl)c1)=C2Cl (centres undefined)
inactive: A498 16.9 µM | ACHN 10.2 µM | HL-60 2.47 µM | HOP-92 4.15 µM | IGROV-1 10.7 µM | K562 3.22 µM | Malme-3M 12.6 µM | NCI-H23 44.6 µM | NCI-H460 4.09 µM | SF-295 9.82 µM | SK-MEL-2 6.84 µM | SK-MEL-5 5.94 µM | SK-OV-3 15.5 µM | SN12C 9.27 µM | SNB-19 15.6 µM | SNB-75 8.79 µM | SW-620 6.18 µM | UACC-62 4.37 µM

COc1ccc(C2SCC(=O)N2NC(=O)c2ccncc2)cc1F (centres undefined)
inactive: A498 > 100 µM | A549 > 100 µM | ACHN > 100 µM | HCT-116 > 100 µM | HL-60 > 100 µM | HOP-92 > 100 µM | Malme-3M > 100 µM | NCI-H23 > 100 µM | NCI-H460 > 100 µM | SF-295 > 100 µM | SK-MEL-2 > 100 µM | SK-MEL-5 > 100 µM | SK-OV-3 > 100 µM | SN12C > 100 µM | SNB-19 > 100 µM | SNB-75 > 100 µM | SW-620 > 100 µM

Nc1nc(SCc2ccc([N+](=O)[O-])cc2)nc2c1ncn2C1OC(COP(=O)(O)O)C(O)C1O (centres undefined)
inactive: A498 > 100 µM | A549 > 100 µM | ACHN > 100 µM | HCT-116 > 100 µM | HL-60 > 100 µM | HOP-92 > 100 µM | IGROV-1 > 100 µM | K562 > 100 µM | Malme-3M > 100 µM | NCI-H23 > 100 µM | NCI-H460 > 100 µM | SF-295 > 100 µM | SK-MEL-2 > 100 µM | SK-MEL-5 > 100 µM | SK-OV-3 > 100 µM | SN12C > 100 µM | SNB-19 > 100 µM | SNB-75 > 100 µM | SW-620 > 100 µM | UACC-62 > 100 µM

O=C(OC1C=C=CS(=O)(=O)CC#C/C=C\1)c1cnc2ccccc2n1 (centres undefined)
inactive: A498 > 100 µM | A549 > 100 µM | ACHN 93.1 µM | HCT-116 92.3 µM | HL-60 76.4 µM | HOP-92 12.7 µM | IGROV-1 79.6 µM | K562 61.4 µM | Malme-3M > 100 µM | NCI-H23 83.6 µM | NCI-H460 > 100 µM | SF-295 > 100 µM | SK-MEL-2 > 100 µM | SK-MEL-5 91.4 µM | SK-OV-3 > 100 µM | SN12C > 100 µM | SNB-19 > 100 µM | SNB-75 > 100 µM | SW-620 40.8 µM | UACC-62 26.4 µM

COc1cc(/C=N\O)cc(/C=N/O)c1O
inactive: A498 43.8 µM | A549 > 100 µM | ACHN 26.2 µM | HCT-116 33.4 µM | HL-60 27.7 µM | HOP-92 21.1 µM | IGROV-1 > 100 µM | K562 71.9 µM | Malme-3M 27.7 µM | NCI-H23 > 100 µM | NCI-H460 40.2 µM | SF-295 17.1 µM | SK-MEL-2 25.8 µM | SK-MEL-5 40 µM | SK-OV-3 30.3 µM | SN12C 31 µM | SNB-19 47.6 µM | SNB-75 80.7 µM | SW-620 73.1 µM | UACC-62 68.1 µM

NC(=O)N/C=C1\C(=O)Oc2ccccc2C1=O
inactive: A549 10 µM | ACHN 48.2 µM | HCT-116 > 100 µM | HL-60 53.8 µM | HOP-92 56.9 µM | IGROV-1 > 100 µM | K562 > 100 µM | NCI-H23 > 100 µM | NCI-H460 > 100 µM | SF-295 51.8 µM | SK-MEL-2 40 µM | SK-MEL-5 > 100 µM | SN12C 64.4 µM | SNB-19 82.8 µM | SW-620 > 100 µM | UACC-62 77.8 µM

O=C(NN1C(=O)C(Cl)C1c1cccc(O)c1)c1ccccc1O (centres undefined)
inactive: A498 > 100 µM | A549 > 100 µM | ACHN > 100 µM | HCT-116 > 100 µM | HL-60 > 100 µM | IGROV-1 > 100 µM | K562 > 100 µM | Malme-3M > 100 µM | NCI-H23 > 100 µM | NCI-H460 > 100 µM | SF-295 > 100 µM | SK-MEL-2 > 100 µM | SK-MEL-5 > 100 µM | SK-OV-3 > 100 µM | SN12C > 100 µM | SNB-19 > 100 µM | SNB-75 > 100 µM | UACC-62 > 100 µM
